These are literature values, as cited in US20030203963A1, “Antimicrobial agent” (priority 2001, published 2003).

Where only a bound is given, the exact number is not on record here.

Holding throughout (details): cited from earlier work
Series [1] has as its system bacteria.
Series [2] has as its system Salmonella.
Series [3] concerns yeasts and moulds as well as catalase-positive bacteria.
For series [4], the system named is Gram-positive bacteria, yeasts, and moulds.
Series [5] has as its system aerobic, Gram-negative bacteria.

On to Propionic Acid and Propionate, for which the “Concentrations necessary for inhibition of bacteria” value in series [1] is given as greater than 16000 ppm.

Take `O=NO` [nitrite]: the “Concentration at which Salmonella is inhibited” value in series [2] (meat products) is > 1,000 ppm.

Consider `C/C=C/C=C/C(=O)O` [Sorbic Acid], for which the Effective concentration in series [3] was 500-3000 ppm.

`O=S=O` [Sulphur Dioxide]: the Effective concentrations in series [4] was 800-2000 ppm. Moreover, the “Effective concentrations for inhibition” value in series [5] is given as 250-500 ppm.

For the molecule Nisin, in series [2] (in food), the “Inhibition of Salmonella” value was “unable to inhibit”.
